Test results taken from ChEMBL document CHEMBL4346729, “The discovery of novel 3-aryl-indazole derivatives as peripherally restricted pan-Trk inhibitors for the treatment of pain” (Bioorg Med Chem Lett, 2019).
Calls of active or inactive are those of the source. The rule behind the calls is not given here.

Experiments:
[1] = Half life in Sprague-Dawley rat at 1 mg/kg, iv; type: ADME, organism-based; conditions: in vivo
[2] = molecular target: Ribosomal protein S6 kinase alpha-1 (Homo sapiens) (UniProt Q15418); assay: Inhibition of RPS6KA1 (unknown origin) at 20 nM using phosphatidylserine as substrate incubated for 60 mins in presence of [33P]-ATP by scintillation counting method
[3] = Intrinsic clearance in human liver microsomes; type: ADME, Microsome; conditions: read-out: CLH
[4] = Toxicity in CFA induced Sprague-Dawley rat assessed as increase in weight gain at 20 mg/kg, po and measured up to 3 days; type: organism-based; conditions: in vivo, 72 h
[5] = molecular target: Ribosomal protein S6 kinase beta-1 (Homo sapiens) (UniProt P23443); assay: Inhibition of recombinant human N-terminal GST/His6-tagged S6K internal ([…]) expressed in Sf9 insect cells at 20 nM using phosphatidylserine as substrate incubated for 60 mins in presence of [33P]-ATP by scintillation counting method
Rattus norvegicus [6] = assay: Antinociceptive activity in CFA induced thermal hypersensitivity Sprague-Dawley rat model assessed as increase in paw withdrawal latency at 4 mg/kg, po after 1 hr; type: functional, organism-based
[7] = Protein binding in Sprague-Dawley rat plasma; type: ADME, cell-free; conditions: read-out: PPB (converted)
[8] = molecular target: Serine/threonine-protein kinase Sgk1 (Homo sapiens) (UniProt O00141); assay: Inhibition of recombinant human full length N-terminal GST and C-terminal His6-tagged SGK1 (M1 to L431) expressed in Sf9 insect cells at 20 nM using phosphatidylserine as substrate incubated for 60 mins in presence of [33P]-ATP by scintillation counting method
Rattus norvegicus [9] = assay: Unbound drug level in plasma of CFA induced Sprague-Dawley rat at 100 mg/kg, po after 1 hr; type: ADME, organism-based; conditions: in vivo
[10] = molecular target: Calcium/calmodulin-dependent protein kinase type II subunit delta (Homo sapiens) (UniProt Q13557); assay: Inhibition of CAMK2D (unknown origin) at 20 nM using calmodulin as substrate incubated for 60 mins in presence of [33P]-ATP by scintillation counting method
[11] = molecular target: Tyrosine-protein kinase ABL1 (Homo sapiens) (UniProt P00519); assay: Inhibition of recombinant human N-terminal GST/His6-tagged ABL1 wt internal (P118 to S535) expressed in Sf9 insect cells at 20 nM using phosphatidylserine as substrate incubated for 60 mins in presence of [33P]-ATP by scintillation counting method
[12] = Apparent permeability from apical to basolateral side in MDCK cells at 50 umol/L at pH 7.4 incubated for 30 mins by LC-MS/MS analysis; type: ADME, cell-based, Canis lupus familiaris; conditions: dog
[13] = molecular target: Mitogen-activated protein kinase 14 (Homo sapiens) (UniProt Q16539); assay: Inhibition of recombinant human full length p38-alpha (M1 to S360) expressed in Escherichia coli at 20 nM using phosphatidylserine as substrate incubated for 60 mins in presence of [33P]-ATP by scintillation counting method
[14] = molecular target: Tyrosine-protein kinase Lck (Homo sapiens) (UniProt P06239); assay: Inhibition of recombinant human full length N-terminal GST/His6-tagged LCK (M1 to P509) expressed in Sf9 insect cells at 20 nM using phosphatidylserine as substrate incubated for 60 mins in presence of [33P]-ATP by scintillation counting method
[15] = molecular target: Activin receptor type-1 (Homo sapiens) (UniProt Q04771); assay: Inhibition of recombinant human N-terminal GST/His6-tagged ACVR1 C-terminal (A145 to C509) expressed in Sf9 insect cells at 20 nM using phosphatidylserine as substrate incubated for 60 mins in presence of [33P]-ATP by scintillation counting method
Rattus norvegicus [16] = assay: Unbound drug level in plasma of CFA induced Sprague-Dawley rat at 0.8 mg/kg, po after 1 hr; type: ADME, organism-based; conditions: in vivo
[17] = molecular target: cGMP-dependent protein kinase 1 (Homo sapiens) (UniProt Q13976); assay: Inhibition of PRKG1 (unknown origin) at 20 nM using cGMP as substrate incubated for 60 mins in presence of [33P]-ATP by scintillation counting method
[18] = molecular target: Serine/threonine-protein kinase PAK 2 (Homo sapiens) (UniProt Q13177); assay: Inhibition of recombinant human N-terminal GST/His6-tagged PAK2 (D3 to R524) expressed in Sf9 insect cells at 20 nM using phosphatidylserine as substrate incubated for 60 mins in presence of [33P]-ATP by scintillation counting method
Homo sapiens = organism: Homo sapiens; assay: Inhibition of PKA (unknown origin) at 20 nM using phosphatidylserine as substrate incubated for 60 mins in presence of [33P]-ATP by scintillation counting method
[19] = molecular target: Serine/threonine-protein kinase Chk2 (Homo sapiens) (UniProt O96017); assay: Inhibition of CHK2 (unknown origin) at 20 nM using phosphatidylserine as substrate incubated for 60 mins in presence of [33P]-ATP by scintillation counting method
[20] = molecular target: Rho-associated protein kinase 2 (Homo sapiens) (UniProt O75116); assay: Inhibition of recombinant human N-terminal GST/His6-tagged ROCK2 internal (P6 to S553) expressed in baculovirus infected Sf9 insect cells at 20 nM using phosphatidylserine as substrate incubated for 60 mins in presence of [33P]-ATP by scintillation counting method
[21] = Ratio of drug level in brain to plasma of Sprague-Dawley rat at 2.5 mg/kg, ip; type: ADME, organism-based; conditions: read-out: BPR
[22] = molecular target: Proto-oncogene tyrosine-protein kinase Src (Homo sapiens) (UniProt P12931); assay: Inhibition of recombinant human full length N-terminal GST and C-terminal His6-tagged SRC (M1 to L536) expressed in Sf9 insect cells at 20 nM using phosphatidylserine as substrate incubated for 60 mins in presence of [33P]-ATP by scintillation counting method
Rattus norvegicus [23] = assay: Antinociceptive activity in CFA induced thermal hypersensitivity Sprague-Dawley rat model assessed as increase in paw withdrawal latency at 100 mg/kg, po after 1 hr; type: functional, organism-based
[24] = molecular target: MAP kinase-activated protein kinase 5 (Homo sapiens) (UniProt Q8IW41); assay: Inhibition of recombinant human full length MAPKAPK5 (M1 to Q471) expressed in Escherichia coli at 20 nM using phosphatidylserine as substrate incubated for 60 mins in presence of [33P]-ATP by scintillation counting method
[25] = molecular target: MAP kinase-activated protein kinase 2 (Homo sapiens) (UniProt P49137); assay: Inhibition of recombinant human full length N-terminal GST/His6-tagged MAPKAPK2 (M1 to L370) expressed in Sf9 insect cells at 20 nM using phosphatidylserine as substrate incubated for 60 mins in presence of [33P]-ATP by scintillation counting method
[26] = molecular target: Tyrosine-protein kinase Lyn (Homo sapiens) (UniProt P07948); assay: Inhibition of recombinant human full length N-terminal GST/His6-tagged LYN (M1 to P512) expressed in Sf9 insect cells at 20 nM using phosphatidylserine as substrate incubated for 60 mins in presence of [33P]-ATP by scintillation counting method
[27] = Unbound drug level in brain of CFA induced Sprague-Dawley rat at 100 mg/kg, po after 1 hr; type: ADME, organism-based; conditions: in vivo

Sequence of Tyrosine-protein kinase ABL1 (Homo sapiens) (P00519 whole entry): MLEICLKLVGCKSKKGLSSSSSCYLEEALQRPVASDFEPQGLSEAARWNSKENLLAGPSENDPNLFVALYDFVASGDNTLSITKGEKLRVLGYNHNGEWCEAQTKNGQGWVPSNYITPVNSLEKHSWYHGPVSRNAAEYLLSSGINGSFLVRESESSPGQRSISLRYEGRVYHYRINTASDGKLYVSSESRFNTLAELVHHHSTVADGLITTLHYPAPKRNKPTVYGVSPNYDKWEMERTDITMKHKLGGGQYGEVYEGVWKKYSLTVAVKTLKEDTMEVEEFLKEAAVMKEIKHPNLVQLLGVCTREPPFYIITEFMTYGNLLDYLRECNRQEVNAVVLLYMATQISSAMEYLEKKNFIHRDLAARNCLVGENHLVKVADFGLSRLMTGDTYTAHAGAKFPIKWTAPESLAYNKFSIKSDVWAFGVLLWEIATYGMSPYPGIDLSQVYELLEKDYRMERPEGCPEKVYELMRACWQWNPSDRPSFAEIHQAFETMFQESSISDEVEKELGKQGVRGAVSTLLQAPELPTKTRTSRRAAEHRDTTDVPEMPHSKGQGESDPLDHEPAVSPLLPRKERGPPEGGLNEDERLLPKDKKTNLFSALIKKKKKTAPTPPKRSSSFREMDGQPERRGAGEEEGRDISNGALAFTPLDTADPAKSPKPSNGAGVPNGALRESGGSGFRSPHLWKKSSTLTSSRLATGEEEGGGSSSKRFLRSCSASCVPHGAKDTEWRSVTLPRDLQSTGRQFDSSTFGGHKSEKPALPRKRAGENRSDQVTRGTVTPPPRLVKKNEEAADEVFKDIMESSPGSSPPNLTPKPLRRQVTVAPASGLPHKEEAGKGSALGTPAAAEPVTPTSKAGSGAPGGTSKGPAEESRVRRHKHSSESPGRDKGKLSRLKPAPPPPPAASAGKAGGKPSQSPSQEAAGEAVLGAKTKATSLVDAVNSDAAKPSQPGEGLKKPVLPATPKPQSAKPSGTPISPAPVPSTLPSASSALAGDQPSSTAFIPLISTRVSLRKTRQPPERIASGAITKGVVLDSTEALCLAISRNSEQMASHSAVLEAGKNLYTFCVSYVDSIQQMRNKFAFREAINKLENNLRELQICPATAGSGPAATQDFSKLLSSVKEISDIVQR
Sequence of Proto-oncogene tyrosine-protein kinase Src (Homo sapiens) (P12931 2-536 limits assumed): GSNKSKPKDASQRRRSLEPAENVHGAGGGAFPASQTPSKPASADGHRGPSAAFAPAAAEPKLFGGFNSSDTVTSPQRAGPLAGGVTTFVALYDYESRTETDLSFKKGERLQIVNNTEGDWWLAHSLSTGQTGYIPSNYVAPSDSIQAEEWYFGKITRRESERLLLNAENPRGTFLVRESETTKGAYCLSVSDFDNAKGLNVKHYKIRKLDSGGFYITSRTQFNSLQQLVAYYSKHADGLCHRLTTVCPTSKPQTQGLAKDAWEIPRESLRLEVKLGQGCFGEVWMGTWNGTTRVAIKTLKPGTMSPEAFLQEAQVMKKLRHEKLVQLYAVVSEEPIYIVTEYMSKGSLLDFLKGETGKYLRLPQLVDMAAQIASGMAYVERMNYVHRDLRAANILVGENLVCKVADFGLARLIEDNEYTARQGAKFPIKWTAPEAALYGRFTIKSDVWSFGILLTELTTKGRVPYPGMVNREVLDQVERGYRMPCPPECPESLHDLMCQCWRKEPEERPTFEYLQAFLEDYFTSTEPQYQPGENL
Sequence of Rho-associated protein kinase 2 (Homo sapiens) (O75116 whole entry, looked up): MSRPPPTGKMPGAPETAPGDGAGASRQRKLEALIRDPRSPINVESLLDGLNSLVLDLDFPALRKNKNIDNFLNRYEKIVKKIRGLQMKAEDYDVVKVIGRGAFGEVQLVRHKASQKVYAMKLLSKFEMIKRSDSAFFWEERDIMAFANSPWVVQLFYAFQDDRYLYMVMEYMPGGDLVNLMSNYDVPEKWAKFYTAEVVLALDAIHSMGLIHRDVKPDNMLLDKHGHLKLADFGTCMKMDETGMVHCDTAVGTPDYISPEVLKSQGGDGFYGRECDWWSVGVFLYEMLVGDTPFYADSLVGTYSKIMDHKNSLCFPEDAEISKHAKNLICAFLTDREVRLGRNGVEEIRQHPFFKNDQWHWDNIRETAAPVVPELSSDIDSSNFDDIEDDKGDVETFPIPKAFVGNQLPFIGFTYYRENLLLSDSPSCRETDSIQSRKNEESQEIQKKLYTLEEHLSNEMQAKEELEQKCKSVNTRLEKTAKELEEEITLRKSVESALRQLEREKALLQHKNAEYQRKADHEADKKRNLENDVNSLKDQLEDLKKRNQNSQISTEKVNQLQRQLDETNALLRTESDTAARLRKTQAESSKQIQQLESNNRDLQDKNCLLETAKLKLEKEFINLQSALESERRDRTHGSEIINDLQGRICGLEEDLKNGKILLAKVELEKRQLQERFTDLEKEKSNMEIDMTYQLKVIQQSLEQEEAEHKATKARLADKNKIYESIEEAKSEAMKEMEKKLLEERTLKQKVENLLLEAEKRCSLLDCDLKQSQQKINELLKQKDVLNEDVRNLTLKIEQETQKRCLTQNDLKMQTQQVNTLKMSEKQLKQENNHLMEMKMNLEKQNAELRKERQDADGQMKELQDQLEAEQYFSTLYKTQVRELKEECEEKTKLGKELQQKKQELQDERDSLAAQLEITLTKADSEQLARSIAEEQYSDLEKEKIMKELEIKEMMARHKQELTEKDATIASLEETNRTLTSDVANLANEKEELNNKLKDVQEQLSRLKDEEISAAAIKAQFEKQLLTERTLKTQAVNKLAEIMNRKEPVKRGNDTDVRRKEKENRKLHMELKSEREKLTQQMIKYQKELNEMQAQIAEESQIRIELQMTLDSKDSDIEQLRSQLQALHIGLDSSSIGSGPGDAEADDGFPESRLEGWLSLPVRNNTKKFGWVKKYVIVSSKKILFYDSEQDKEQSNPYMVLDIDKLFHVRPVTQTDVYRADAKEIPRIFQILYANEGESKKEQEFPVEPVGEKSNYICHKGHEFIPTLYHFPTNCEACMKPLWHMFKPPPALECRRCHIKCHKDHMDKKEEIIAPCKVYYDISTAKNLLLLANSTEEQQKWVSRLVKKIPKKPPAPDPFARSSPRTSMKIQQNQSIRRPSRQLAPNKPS
Sequence of cGMP-dependent protein kinase 1 (Homo sapiens) (Q13976 whole entry): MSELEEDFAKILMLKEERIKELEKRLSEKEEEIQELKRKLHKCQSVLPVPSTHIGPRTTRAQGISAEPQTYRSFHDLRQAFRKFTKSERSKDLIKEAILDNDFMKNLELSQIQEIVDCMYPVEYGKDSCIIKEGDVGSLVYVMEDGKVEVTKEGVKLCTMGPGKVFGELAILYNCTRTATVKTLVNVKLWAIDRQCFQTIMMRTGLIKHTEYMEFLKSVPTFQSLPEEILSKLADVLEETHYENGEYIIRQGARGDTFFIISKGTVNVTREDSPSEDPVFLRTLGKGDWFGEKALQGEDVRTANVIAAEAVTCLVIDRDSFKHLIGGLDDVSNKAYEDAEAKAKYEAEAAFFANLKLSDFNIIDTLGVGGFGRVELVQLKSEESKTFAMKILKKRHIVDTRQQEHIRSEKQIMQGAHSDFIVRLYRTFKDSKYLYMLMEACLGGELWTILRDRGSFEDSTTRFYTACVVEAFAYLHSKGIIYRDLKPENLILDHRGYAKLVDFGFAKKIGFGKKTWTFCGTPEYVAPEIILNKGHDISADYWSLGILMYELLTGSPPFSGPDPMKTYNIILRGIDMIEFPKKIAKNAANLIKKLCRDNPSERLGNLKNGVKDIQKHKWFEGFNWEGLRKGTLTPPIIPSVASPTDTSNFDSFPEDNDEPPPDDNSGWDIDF
Sequence of Serine/threonine-protein kinase Sgk1 (Homo sapiens) (O00141 whole entry): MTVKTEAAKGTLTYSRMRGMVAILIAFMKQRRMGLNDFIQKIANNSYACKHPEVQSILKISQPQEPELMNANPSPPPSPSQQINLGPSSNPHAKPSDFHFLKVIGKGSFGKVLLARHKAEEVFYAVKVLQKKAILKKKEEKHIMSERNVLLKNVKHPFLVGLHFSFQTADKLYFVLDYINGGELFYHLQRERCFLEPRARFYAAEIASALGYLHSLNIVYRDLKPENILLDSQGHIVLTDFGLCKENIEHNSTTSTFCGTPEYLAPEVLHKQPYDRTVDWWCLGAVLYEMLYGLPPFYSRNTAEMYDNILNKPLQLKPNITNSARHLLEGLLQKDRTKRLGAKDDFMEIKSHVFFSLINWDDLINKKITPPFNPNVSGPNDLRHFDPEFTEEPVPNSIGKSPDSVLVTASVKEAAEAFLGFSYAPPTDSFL
Sequence of Tyrosine-protein kinase Lck (Homo sapiens) (P06239 2-509 limits assumed): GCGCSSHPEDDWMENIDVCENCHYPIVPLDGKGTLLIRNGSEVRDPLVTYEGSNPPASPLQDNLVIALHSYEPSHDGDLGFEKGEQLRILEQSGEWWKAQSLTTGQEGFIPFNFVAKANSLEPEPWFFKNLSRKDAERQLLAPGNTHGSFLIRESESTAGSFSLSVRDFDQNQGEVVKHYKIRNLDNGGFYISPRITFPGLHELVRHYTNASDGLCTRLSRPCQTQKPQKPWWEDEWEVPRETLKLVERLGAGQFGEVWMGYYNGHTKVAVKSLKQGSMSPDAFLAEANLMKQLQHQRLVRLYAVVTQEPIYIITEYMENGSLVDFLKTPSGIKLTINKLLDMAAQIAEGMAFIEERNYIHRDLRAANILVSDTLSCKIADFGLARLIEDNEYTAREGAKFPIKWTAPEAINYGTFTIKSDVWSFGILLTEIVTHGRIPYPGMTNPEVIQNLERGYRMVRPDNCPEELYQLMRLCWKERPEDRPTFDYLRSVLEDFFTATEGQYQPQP
Sequence of MAP kinase-activated protein kinase 2 (Homo sapiens) (P49137 whole entry, looked up): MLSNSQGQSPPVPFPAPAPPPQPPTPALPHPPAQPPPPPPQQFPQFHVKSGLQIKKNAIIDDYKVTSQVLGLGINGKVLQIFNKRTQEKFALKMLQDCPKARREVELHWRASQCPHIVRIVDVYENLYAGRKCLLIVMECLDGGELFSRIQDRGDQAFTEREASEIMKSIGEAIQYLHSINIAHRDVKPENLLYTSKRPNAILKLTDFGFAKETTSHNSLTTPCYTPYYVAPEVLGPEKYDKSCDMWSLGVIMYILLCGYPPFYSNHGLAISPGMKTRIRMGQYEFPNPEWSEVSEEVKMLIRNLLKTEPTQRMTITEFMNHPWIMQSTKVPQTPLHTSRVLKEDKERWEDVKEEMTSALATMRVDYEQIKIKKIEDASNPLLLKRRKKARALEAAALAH

half-life [1]: 1.46 h | inhibition [2]: 7% | CLint scaled [3]: 127 mL/min/kg | inhibition [5]: 3% | fraction unbound [7]: 0.134 | inhibition [8]: -1% | Cp(f) (Rattus norvegicus [9]): 266.5 nM | inhibition [10]: 0% | inhibition [11]: 1% | Papp A→B at 0.5 h, 50 µM [12]: 15.2 ×10⁻⁶ cm/s | inhibition [13]: -8% | inhibition [14]: -6% | inhibition [15]: -2% | Cp(f) (Rattus norvegicus [16]): 4.7 nM | inhibition [17]: -5% | inhibition [18]: 12% | inhibition (Homo sapiens): -8% | inhibition [19]: -1% | inhibition [20]: 5% | Kp [21]: 0.03 | inhibition [22]: 2% | inhibition [24]: 6% | inhibition [25]: 19% | inhibition [26]: -1% | Drug uptake(free) [27]: 3.5 nM
SMILES: Cn1cc(-c2n[nH]c3ccc(NCc4cc(F)ccc4S(C)(=O)=O)cc23)cn1
Activity [4]: Non-Toxic | Activity (Rattus norvegicus [6]): Active | Activity (Rattus norvegicus [23]): Active
